According to ChEMBL document CHEMBL3400117, “2-Aminophenanthroline dimer stabilized the C-C mismatched duplex DNA” (Bioorg Med Chem, 2015):

What was measured:
[1] = Binding affinity to 5'-CTAACTGAATG-3'/3'-GATTGTCTTAC-5' duplex DNA (unknown origin) in sodium cacodylate buffer assessed as change in melting temperature at 10 uM at pH 7
[2] = Binding affinity to 5'-CTAACTGAATG-3'/3'-GATTGCCTTAC-5' duplex DNA (unknown origin) in sodium cacodylate buffer assessed as change in melting temperature at 10 uM at pH 7
[3] = Binding affinity to 5'-CTAACTGAATG-3'/3'-GATTGGCTTAC-5' duplex DNA (unknown origin) in sodium cacodylate buffer assessed as change in melting temperature at 10 uM at pH 7
[4] = Binding affinity to 5'-CTAACAGAATG-3'/3'-GATTGACTTAC-5' duplex DNA (unknown origin) in sodium cacodylate buffer assessed as change in melting temperature at 10 uM at pH 7
[5] = Binding affinity to 5'-CTAACAGAATG-3'/3'-GATTGCCTTAC-5' duplex DNA (unknown origin) in sodium cacodylate buffer assessed as change in melting temperature at 10 uM at pH 7
[6] = Binding affinity to 5'-CTAACAGAATG-3'/3'-GATTGGCTTAC-5' duplex DNA (unknown origin) in sodium cacodylate buffer assessed as change in melting temperature at 10 uM at pH 7
[7] = Binding affinity to 5'-CTAACCGAATG-3'/3'-GATTGCCTTAC-5' duplex DNA (unknown origin) in sodium cacodylate buffer assessed as change in melting temperature at 10 uM at pH 7
[8] = Binding affinity to 5'-CTAACGGAATG-3'/3'-GATTGGCTTAC-5' duplex DNA (unknown origin) in sodium cacodylate buffer assessed as change in melting temperature at 10 uM at pH 7
[9] = Binding affinity to 5'-CTAACTGAATG-3'/3'-GATTGACTTAC-5' duplex DNA (unknown origin) in sodium cacodylate buffer assessed as change in melting temperature at 10 uM at pH 7
[10] = Binding affinity to 5'-CTAACCGAATG-3'/3'-GATTGGCTTAC-5' duplex DNA (unknown origin) in sodium cacodylate buffer assessed as change in melting temperature at 10 uM at pH 7
[11] = Binding affinity to 5'-GCTAAGCCAATGA-3'/3'-CGATTCCGTTACT-5' duplex DNA (unknown origin) assessed as change in melting temperature
[12] = Binding affinity to 5'-GCTAAGCTAATGA-3'/3'-CGATTCCATTACT-5' duplex DNA (unknown origin) assessed as change in melting temperature
[13] = Binding affinity to 5'-GCTAACCCAATGA-3'/3'-CGATTGCGTTACT-5' duplex DNA (unknown origin) assessed as change in melting temperature
[14] = Binding affinity to 5'-GCTAAGCAAATGA-3'/3'-CGATTCCTTTACT-5' duplex DNA (unknown origin) assessed as change in melting temperature
[15] = Binding affinity to 5'-GCTAAACTAATGA-3'/3'-CGATTTCATTACT-5' duplex DNA (unknown origin) assessed as change in melting temperature
[16] = Binding affinity to 5'-GCTAAACAAATGA-3'/3'-CGATTTCTTTACT-5' duplex DNA (unknown origin) assessed as change in melting temperature
[17] = Binding affinity to 5'-GCTAACCTAATGA-3'/3'-CGATTGCATTACT-5' duplex DNA (unknown origin) assessed as change in melting temperature
[18] = Binding affinity to 5'-GCTAATCAAATGA-3'/3'-CGATTACTTTACT-5' duplex DNA (unknown origin) assessed as change in melting temperature
[19] = Binding affinity to 5'-GCTAACCAAATGA-3'/3'-CGATTGCTTTACT-5' duplex DNA (unknown origin) assessed as change in melting temperature
[20] = Binding affinity to 5'-GCTAACCGAATGA-3'/3'-CGATTGCCTTACT-5' duplex DNA (unknown origin) assessed as change in melting temperature
[21] = Binding affinity to 5'-CTAACCGAATG-3'/3'-GATTGCCTTAC-5' duplex DNA (unknown origin) in sodium cacodylate buffer assessed as change in melting temperature at pH 7
[22] = Binding affinity to 5'-TCCAG_GCAAC-3'/3'-AGGTCACGTTG-5' duplex DNA (unknown origin) in sodium cacodylate buffer assessed as change in melting temperature at 20 uM at pH 7
[23] = Binding affinity to 5'-TCCAG_GCAAC-3'/3'-AGGTCTCGTTG-5' duplex DNA (unknown origin) in sodium cacodylate buffer assessed as change in melting temperature at 20 uM at pH 7
[24] = Binding affinity to 5'-TCCAG_GCAAC-3'/3'-AGGTCCCGTTG-5' duplex DNA (unknown origin) in sodium cacodylate buffer assessed as change in melting temperature at 20 uM at pH 7
[25] = Binding affinity to 5'-TCCAG_GCAAC-3'/3'-AGGTCGCGTTG-5' duplex DNA (unknown origin) in sodium cacodylate buffer assessed as change in melting temperature at 20 uM at pH 7
[26] = Binding affinity to 5'-TCCAGGCAAC-3'/3'-AGGTCCGTTG-5' duplex DNA (unknown origin) in sodium cacodylate buffer assessed as change in melting temperature at 20 uM at pH 7

| ΔTm [1] [°C] | ΔTm [2] [°C] | ΔTm [3] [°C] | ΔTm [4] [°C] | ΔTm [5] [°C] | ΔTm [6] [°C] | ΔTm [7] [°C] | ΔTm [8] [°C] | ΔTm [9] [°C] | ΔTm [10] [°C] | Structure (SMILES) | other results |
| --- | --- | --- | --- | --- | --- | --- | --- | --- | --- | --- | --- |
| 1.5 | 2.3 | 0.1 | 0 | 0.4 | -0.2 | 2.6 | 0.3 | -0.1 | 0.3 | O=C(CCNCCC(=O)Nc1ccc2ccc3cccnc3c2n1)Nc1ccc2ccccc2n1 | – |
| 1.4 | 4.4 | 0.3 | 2.1 | 4.4 | 1.5 | 7.8 | 1.4 | 0.4 | 0.3 | O=C(CCNCCC(=O)Nc1ccc2ccc3cccnc3c2n1)Nc1ccc2ccc3cccnc3c2n1 | ΔTm [11]: 6.5 °C; ΔTm [12]: 5.6 °C; ΔTm [13]: 4.7 °C; ΔTm [14]: 4.2 °C; ΔTm [15]: 5.7 °C; ΔTm [16]: 4 °C; ΔTm [17]: 5.6 °C; ΔTm [18]: 4.4 °C; ΔTm [19]: 3.8 °C; ΔTm [20]: 4 °C; Activity [21]: Dose-dependent effect |
| 0.2 | 0.7 | -0.5 | -0.5 | 1.6 | -0.4 | 2.6 | -0.2 | -0.1 | 0.2 | O=C(CCNCCC(=O)Nc1ccc2ccccc2n1)Nc1ccc2ccccc2n1 | – |
| 1.3 | 0.4 | 1.3 | 1.3 | 0.5 | 1.2 | 1.6 | 0.8 | 0.9 | 0.6 | NCCC(=O)Nc1ccc2ccc3cccnc3c2n1 | ΔTm [22]: 3.4 °C; ΔTm [23]: 3.6 °C; ΔTm [24]: 6 °C; ΔTm [25]: 3 °C; ΔTm [26]: 0.2 °C |
